Source: paper PMC8286840, “Identifying SARS-CoV-2 antiviral compounds by screening for small molecule inhibitors of Nsp3 papain-like protease” (Biochemical Journal, 2021)
Structures can show the parent of a compound that is named as a salt. Where two headings read alike, the source gives them in different places.

Columns and labels:
[1] = biological target: T1, SARS-CoV-2 PLpro (nsp3 1564–1878) (Severe acute respiratory syndrome coronavirus 2, UniProt P0DTD1); experiment: biochemical; design: FRET-quenched peptide (Pro3) cleavage by PLpro, 10 min pre-incubation, slope over 20 min, normalised to no-compound control; settings: low concentration screen, read-out: % of control remaining
[2] = biological target: T1, SARS-CoV-2 PLpro (nsp3 1564–1878); experiment: biochemical; design: FRET-quenched peptide (Pro3) cleavage by PLpro, 10 min pre-incubation, slope over 20 min, normalised to no-compound control; settings: high concentration screen, read-out: % of control remaining

## CN1C[C@H](C(=O)N[C@]2(C)O[C@@]3(O)[C@@H]4CCCN4C(=O)[C@H](Cc4ccccc4)N3C2=O)C=C2c3cccc4[nH]cc(c34)C[C@H]21 [Ergotamine]
[1]; Well no.=1726
  remaining activity at 1.25 µM: 99.5%
[2]; Well no.=1726
  remaining activity at 3.75 µM: 98.3%

## Cc1cccc(/C=C/c2ccccc2)n1 [SIB 1893]
[1]; Well no.=1419
  remaining activity at 1.25 µM: 96.6%
[2]; Well no.=1419
  remaining activity at 3.75 µM: 95.7%

## Cc1c(N)nc([C@H](CC(N)=O)NC[C@H](N)C(N)=O)nc1C(=O)N[C@H](C(=O)N[C@H](C)[C@@H](O)[C@H](C)C(=O)N[C@H](C(=O)NCCc1nc(-c2nc(C(=O)NCCC[S+](C)C)cs2)cs1)[C@@H](C)O)[C@@H](OC1OC(CO)C(O)C(O)C1OC1OC(CO)C(O)C(OC(N)=O)C1O)c1cnc[nH]1 (stereo partly drawn) [Bleomycin]
[1]; Well no.=1890
  remaining activity at 1.25 µM: 89.5%
[2]; Well no.=1890
  remaining activity at 3.75 µM: 91.9%

## CC(C)CN(C[C@@H](O)[C@H](Cc1ccccc1)NC(=O)O[C@H]1CO[C@H]2OCC[C@H]21)S(=O)(=O)c1ccc(N)cc1 [Darunavir Ethanolate]
[1]; Well no.=8284
  remaining activity at 1.25 µM: 90.9%
[2]; Well no.=8284
  remaining activity at 3.75 µM: 94.1%

## CC/C=C\C[C@@H](/C=C/C=C\C/C=C\C/C=C\CCCC(=O)O)OO [15(S)-HPEPE]
[1]; Well no.=4335
  remaining activity at 1.25 µM: 103%
[2]; Well no.=4335
  remaining activity at 3.75 µM: 102%

## CCCCCCCCCCCCCCC(F)C(=O)O (stereo not drawn) [2-Fluoropalmitic acid]
[1]; Well no.=4355
  remaining activity at 1.25 µM: 99.2%
[2]; Well no.=4355
  remaining activity at 3.75 µM: 97%

## Cc1ccc(-c2n[nH]c3c2C(c2cccc(O)c2)N(c2ccc(C(=O)O)cc2)C3=O)cc1 (stereo not drawn) [4-(4-(3-hydroxyphenyl)-3-(4-methylphenyl)-6-oxo-4,6-dihydropyrrolo[3,4-c]pyrazol-5(1H)-yl)benzoic acid]
[1]; Well no.=5969
  remaining activity at 1.25 µM: 100%
[2]; Well no.=5969
  remaining activity at 3.75 µM: 97.4%

## C#Cc1cccc(Nc2ncnc3cc(OCCOC)c(OCCO)cc23)c1 [OSI-420]
[1]; Well no.=4822
  remaining activity at 1.25 µM: 99.2%
[1]; Well no.=5152
  remaining activity at 1.25 µM: 102%
[2]; Well no.=4822
  remaining activity at 3.75 µM: 101%
[2]; Well no.=5152
  remaining activity at 3.75 µM: 97.4%

## CCCNC(C)C(=O)Nc1ccccc1C (stereo not drawn) [Prilocaine hydrochloride]
[1]; Well no.=1355
  remaining activity at 1.25 µM: 97.2%
[2]; Well no.=1355
  remaining activity at 3.75 µM: 98.5%

## N#CC(C#N)=Cc1ccc([N+](=O)[O-])c(O)c1 [Tyrphostin AG 126]
[1]; Well no.=1518
  remaining activity at 1.25 µM: 100%
[2]; Well no.=1518
  remaining activity at 3.75 µM: 95.4%

## COc1ccc(C(=O)O[C@H]2CC[C@@]3(C)[C@@H]4CC[C@H]5[C@]6(O)C[C@H](O)[C@@]7(O)[C@@H](CN8C[C@@H](C)CC[C@H]8[C@@]7(C)O)[C@]6(O)C[C@@]53O[C@]24O)cc1OC [Veratridine]
[1]; Well no.=3222
  remaining activity at 1.25 µM: 99.9%
[2]; Well no.=3222
  remaining activity at 3.75 µM: 101%

## O=C1C(Cl)=C(N2C(=O)CCC2=O)C(=O)c2ccccc21 [MEK Inhibitor II]
[1]; Well no.=2560
  remaining activity at 1.25 µM: 98%
[2]; Well no.=2560
  remaining activity at 3.75 µM: 98.5%

## CN(Cc1ccc(C(C)(C)C)cc1)Cc1cccc2ccccc12 [Butenafine HCl]
[1]; Well no.=5371
  remaining activity at 1.25 µM: 98.1%
[2]; Well no.=5371
  remaining activity at 3.75 µM: 97.8%

## CS(=O)(=O)c1cccc(CNc2nc(Nc3ccc4c(c3)CCC(=O)N4)ncc2C(F)(F)F)c1 [PF 573228]
[1]; Well no.=4712
  remaining activity at 1.25 µM: 96.1%
[2]; Well no.=4712
  remaining activity at 3.75 µM: 101%

## CCc1cc2c(cc1CC)CC(NC[C@H](O)c1ccc(O)c3[nH]c(=O)ccc13)C2 [Indacaterol Maleate]
[1]; Well no.=5323
  remaining activity at 1.25 µM: 101%
[2]; Well no.=5323
  remaining activity at 3.75 µM: 98.4%

## C=CCc1cccc(/C=N/NC(=O)CN2CCN(Cc3ccccc3)CC2)c1O [PAC-1]
[1]; Well no.=4697
  remaining activity at 1.25 µM: 103%
[1]; Well no.=6200
  remaining activity at 1.25 µM: 107%
[2]; Well no.=4697
  remaining activity at 3.75 µM: 101%
[2]; Well no.=6200
  remaining activity at 3.75 µM: 93.7%

## COCc1nc2c([nH]1)c(=O)n(C)c(=O)n2CC(C)C [8-Methoxymethyl-3-isobutyl-1-methylxanthine]
[1]; Well no.=970
  remaining activity at 1.25 µM: 103%
[2]; Well no.=970
  remaining activity at 3.75 µM: 102%

## CN(C)C(=O)COC(=O)Cc1ccc(OC(=O)c2ccc(NC(=N)N)cc2)cc1 [Camostat mesylate]
[1]; Well no.=5405
  remaining activity at 1.25 µM: 101%
[2]; Well no.=5405
  remaining activity at 3.75 µM: 109%

## CCN(c1nc(N)c(C(=O)NC(=N)N)nc1Cl)C(C)C [5-(N-Ethyl-N-isopropyl)amiloride]
[1]; Well no.=203
  remaining activity at 1.25 µM: 99.7%
[2]; Well no.=203
  remaining activity at 3.75 µM: 97.3%

## COc1ccc(CCNC[C@@H](O)c2ccc(O)cc2)cc1OC [R(-)-Denopamine]
[1]; Well no.=1498
  remaining activity at 1.25 µM: 103%
[2]; Well no.=1498
  remaining activity at 3.75 µM: 100%

## O=C(Nc1ncc(SCCN2CCCC2)s1)[C@]1(c2ccc(S(=O)(=O)C3CC3)cc2)C[C@H]1C1CCCCC1 [LY2608204]
[1]; Well no.=4772
  remaining activity at 1.25 µM: 100%
[2]; Well no.=4772
  remaining activity at 3.75 µM: 99.2%

## C=CC(=O)N1CCN(C(=O)CNc2cc(I)c(Cl)cc2O)CC1 [K-Ras(G12C) inhibitor 12]
[1]; Well no.=7951
  remaining activity at 1.25 µM: 99.9%
[2]; Well no.=7951
  remaining activity at 3.75 µM: 90.4%

## CN(C)C(N)=NCCC[C@H](N)C(=O)O [Asymmetric dimethylarginine]
[1]; Well no.=7119
  remaining activity at 1.25 µM: 103%
[2]; Well no.=7119
  remaining activity at 3.75 µM: 102%

## C[C@H](Nc1cc(NS(=O)(=O)N2CCC2)nc(SCc2cccc(F)c2F)n1)[C@@H](O)CO [SRT3190]
[1]; Well no.=7438
  remaining activity at 1.25 µM: 104%
[1]; Well no.=8507
  remaining activity at 1.25 µM: 98.1%
[2]; Well no.=7438
  remaining activity at 3.75 µM: 104%
[2]; Well no.=8507
  remaining activity at 3.75 µM: 97.8%

## NCc1c[nH]c(=S)n1[C@H]1CCc2c(F)cc(F)cc2C1 [Nepicastat hydrochloride]
[1]; Well no.=6033
  remaining activity at 1.25 µM: 100%
[2]; Well no.=6033
  remaining activity at 3.75 µM: 102%

## CCCCCCCCOC(=O)/C=C/c1ccc(O)c(O)c1 [n-Octyl caffeate]
[1]; Well no.=4043
  remaining activity at 1.25 µM: 93.2%
[2]; Well no.=4043
  remaining activity at 3.75 µM: 95.8%

## O=C(CCN1CCN(C(=O)OCc2cc(Cl)cc(Cl)c2)CC1)c1ccc2[nH]c(=O)oc2c1 [PF-8380]
[1]; Well no.=7798
  remaining activity at 1.25 µM: 104%
[2]; Well no.=7798
  remaining activity at 3.75 µM: 98.3%

## CC(=O)[C@]1(O)Cc2c(O)c3c(c(O)c2[C@@H](O[C@H]2C[C@H](N)[C@H](O)[C@H](C)O2)C1)C(=O)c1ccccc1C3=O [Idarubicin]
[1]; Well no.=574
  remaining activity at 1.25 µM: 103%
[1]; Well no.=1613
  remaining activity at 1.25 µM: 102%
[2]; Well no.=574
  remaining activity at 3.75 µM: 102%
[2]; Well no.=1613
  remaining activity at 3.75 µM: 103%

## COc1cnc(-n2cnc(C)n2)c2[nH]cc(C(=O)C(=O)N3CCN(C(=O)c4ccccc4)CC3)c12 [Temsavir]
[1]; Well no.=7886
  remaining activity at 1.25 µM: 97.2%
[2]; Well no.=7886
  remaining activity at 3.75 µM: 98%

## Cc1ccc2c(c1)C(N1CCN(C)CC1)=Nc1cccnc1N2 [JL-18]
[1]; Well no.=781
  remaining activity at 1.25 µM: 107%
[2]; Well no.=781
  remaining activity at 3.75 µM: 103%

## C=CCN1CCc2c(cc(O)c(O)c2Cl)C(c2ccccc2)C1 (racemic)
[1]; Well no.=725
  remaining activity at 1.25 µM: 96.8%
[2]; Well no.=725
  remaining activity at 3.75 µM: 96.5%

## CCCCCC(O)/C=C/C=O (racemic)
[1]; Well no.=4337
  remaining activity at 1.25 µM: 104%
[2]; Well no.=4337
  remaining activity at 3.75 µM: 102%
